Assay results published in ChEMBL document CHEMBL4311994, “New 2,6-diaminopyridines containing a sterically hindered benzylphosphonate moiety in the aromatic core as potential antioxidant and anti-cancer drugs” (Eur J Med Chem, 2019).
Activity calls are given as the source filed them. The calls are words filed in the database; no cut-off is given here.

How the values were obtained:
[1] = Hemolytic activity in human erythrocytes at 50.0 +/- 4.3 uM incubated for 1 hrs by photometric analysis relative to control; format: ADME, cell-based, Erythrocyte; conditions: read-out: Activity
Escherichia coli = test: Antimicrobial activity against Escherichia coli CDC F-50 by serial dilution method; format: functional
[2] = Antioxidant activity assessed as ABAP free radical scavenging activity by measuring decrease in chemiluminescence intensity at 0.25 to 1 mM by luminescence based assay; format: functional
Bacillus cereus = test: Antimicrobial activity against Bacillus cereus ATCC 8035 by serial dilution method; format: functional
Staphylococcus aureus = test: Antimicrobial activity against Staphylococcus aureus ATCC 209P by serial dilution method; format: functional
[3] = Hemolytic activity in human erythrocytes at 100.0 +/- 7.8 uM incubated for 1 hrs by photometric analysis relative to control; format: ADME, cell-based, Erythrocyte; conditions: read-out: Activity
M-HeLa [4] = test: Antiproliferative activity against human M-HeLa cells by fluorescence based viable cell counting method; format: functional
MCF7 = test: Antiproliferative activity against human MCF7 cells by fluorescence based viable cell counting method; format: functional
Aspergillus niger = test: Antimicrobial activity against Aspergillus niger BKMF 1119 by serial dilution method; format: functional
Candida albicans = test: Antimicrobial activity against Candida albicans 855-653 by serial dilution method; format: functional
[5] = Hemolytic activity in human erythrocytes at 10.0 +/- 0.8 uM incubated for 1 hrs by photometric analysis relative to control; format: ADME, cell-based, Erythrocyte; conditions: read-out: Activity
Pseudomonas aeruginosa = test: Antimicrobial activity against Pseudomonas aeruginosa ATCC 9027 by serial dilution method; format: functional
[6] = test system: Trichophyton mentagrophytes; test: Antimicrobial activity against Trichophyton mentagrophytes var. gypseum 1773 by serial dilution method; format: functional
[7] = Cytotoxicity against human Chang cells assessed as reduction in cell viability by fluorescence based viable cell counting method
A549 = test: Antiproliferative activity against human A549 cells by fluorescence based viable cell counting method; format: functional
PC-3 = test: Antiproliferative activity against human PC3 cells by fluorescence based viable cell counting method; format: functional
M-HeLa [8] = test: Induction of apoptosis in human M-HeLa cells assessed as increase in caspase 9 expression at IC50 incubated for 24 hrs by luminescence based assay relative to control; format: functional
M-HeLa [9] = test: Induction of apoptosis in human M-HeLa cells assessed as increase in Akt expression at IC50 incubated for 24 hrs by luminescence based assay; format: functional, cell-based
M-HeLa [10] = test: Induction of apoptosis in human M-HeLa cells assessed as increase in p53 expression at IC50 incubated for 24 hrs by luminescence based assay; format: functional, cell-based
M-HeLa [11] = test: Induction of apoptosis in human M-HeLa cells assessed as increase in JNK expression at IC50 incubated for 24 hrs by luminescence based assay; format: functional, cell-based
M-HeLa [12] = test: Induction of apoptosis in human M-HeLa cells assessed as effect on Bad expression at IC50 incubated for 24 hrs by luminescence based assay; format: functional, cell-based
M-HeLa [13] = test: Induction of apoptosis in human M-HeLa cells assessed as increase in caspase 8 expression at IC50 incubated for 24 hrs by luminescence based assay; format: functional, cell-based
M-HeLa [14] = test: Induction of apoptosis in human M-HeLa cells assessed as increase in bcl2 expression at IC50 incubated for 24 hrs by luminescence based assay; format: functional, cell-based
[15] = Homo sapiens, M-HeLa, read-out: IC50
[16] = Homo sapiens, MCF7, read-out: IC50

Row | SMILES | hemolysis at 1 h, 50 uM [1] [%] | MIC (Escherichia coli) [µM] | Activity [2] | MIC (Bacillus cereus) [µM] | MIC (Staphylococcus aureus) [µM] | hemolysis at 1 h, 100 uM [3] [%] | IC50 (M-HeLa [4]; [15]) [µM] | IC50 (MCF7; [16]) [µM] | MIC (Aspergillus niger) [µM] | MIC (Candida albicans) [µM] | hemolysis at 1 h, 10 uM [5] [%] | MIC (Pseudomonas aeruginosa) [µM] | MIC [6] [µM] | IC50 ([7]; Homo sapiens, read-out: IC50) [µM] | further results
1 | CC(C)OP(=O)(OC(C)C)C(c1cc(C(C)(C)C)c(O)c(C(C)(C)C)c1)c1ccc(N)nc1N (centres undefined) | 0 | > 500 | Active | > 500 | > 500 | 0.3 | 38 | 21.8 | > 500 | > 500 | 0 | > 500 | > 500 | > 100 | –
2 | CC(C)(C)C1=CC(=CP(=O)(Oc2ccccc2)Oc2ccccc2)C=C(C(C)(C)C)C1=O | – | – | Active | – | – | – | 14.3 | 38.4 | – | – | – | – | – | 17 | –
3 | COc1cccc2c1C(=O)c1c(O)c3c(c(O)c1C2=O)C[C@@](O)(C(=O)CO)C[C@@H]3O[C@H]1C[C@H](N)[C@H](O)[C@H](C)O1 [DOXORUBICIN] | – | – | – | – | – | – | 3 | – | – | – | – | – | – | 1.3 | –
4 | CC(C)(C)c1cc(CP(=O)(Oc2ccccc2)Oc2ccccc2)cc(C(C)(C)C)c1O | – | – | Active | – | – | – | 15.6 | > 100 | – | – | – | – | – | 40 | –
5 | COP(=O)(C=C1C=C(C(C)(C)C)C(=O)C(C(C)(C)C)=C1)OC | – | – | Active | – | – | – | 17.2 | > 100 | – | – | – | – | – | 24.1 | –
6 | CCOP(=O)(OCC)C(c1cc(C(C)(C)C)c(O)c(C(C)(C)C)c1)c1ccc(N)cc1N (centres undefined) | 0 | > 500 | Active | > 500 | > 500 | 0 | 39 | 68.2 | > 500 | > 500 | 0 | > 500 | > 500 | 54.9 | –
7 | COP(=O)(OC)C(c1cc(C(C)(C)C)c(O)c(C(C)(C)C)c1)c1ccc(N)nc1N (centres undefined) | 0 | > 500 | Active | > 500 | > 500 | 0 | 16.1 | 31 | > 500 | > 500 | 0 | > 500 | > 500 | > 100 | Activity (A549): inactive; Activity (PC-3): inactive
8 | CC(C)OP(=O)(Cc1cc(C(C)(C)C)c(O)c(C(C)(C)C)c1)OC(C)C | – | – | Active | – | – | – | 30 | 68.2 | – | – | – | – | – | 96 | –
9 | CCOP(=O)(OCC)C(c1cc(C(C)(C)C)c(O)c(C(C)(C)C)c1)c1ccc(N)nc1N (centres undefined) | 0 | > 500 | Active | > 500 | > 500 | 0 | 17.1 | 34.2 | > 500 | > 500 | 0 | > 500 | > 500 | > 100 | –
10 | CC/C(=C(\c1ccccc1)c1ccc(OCCN(C)C)cc1)c1ccccc1 [TAMOXIFEN] | – | – | – | – | – | – | – | – | – | – | – | – | – | 42.1 | –
11 | CC(C)OP(=O)(C=C1C=C(C(C)(C)C)C(=O)C(C(C)(C)C)=C1)OC(C)C | – | – | Active | – | – | – | 10.1 | 66 | – | – | – | – | – | 22.4 | –
12 | COP(=O)(OC)C(c1cc(C(C)(C)C)c(O)c(C(C)(C)C)c1)c1ccc(N)cc1N (centres undefined) | 0 | > 500 | Active | > 500 | > 500 | 0 | 45.3 | > 100 | > 500 | > 500 | 0 | > 500 | > 500 | > 100 | –
13 | CC(C)(C)c1cc(C(c2ccc(N)cc2N)P(=O)(Oc2ccccc2)Oc2ccccc2)cc(C(C)(C)C)c1O (centres undefined) | 0.9 | > 500 | Active | > 500 | > 500 | 1.9 | – | – | > 500 | > 500 | 0 | > 500 | > 500 | – | IC50 (M-HeLa [4]; m-hela): Nd(Toxic); IC50 (MCF7; mcf7): Nd(Toxic); IC50 [7]: Nd(Toxic)
14 | CC(C)(C)c1cc(C(c2ccc(N)nc2N)P(=O)(Oc2ccccc2)Oc2ccccc2)cc(C(C)(C)C)c1O (centres undefined) | 0.5 | > 500 | Active | > 500 | > 500 | 1.9 | 7.4 | 16 | > 500 | > 500 | 0 | > 500 | > 500 | 52 | fold change (FC) (M-HeLa [8]): 2; Activity (M-HeLa [9]): Active; Activity (M-HeLa [10]): Active; Activity (M-HeLa [11]): Active; Activity (M-HeLa [12]): inactive; Activity (M-HeLa [13]): inactive; Activity (M-HeLa [14]): Active
15 | CC(C)OP(=O)(OC(C)C)C(c1cc(C(C)(C)C)c(O)c(C(C)(C)C)c1)c1ccc(N)cc1N (centres undefined) | – | > 500 | Active | > 500 | > 500 | – | – | – | > 500 | > 500 | – | > 500 | > 500 | – | –
16 | CCCOP(=O)(OCCC)C(c1cc(C(C)(C)C)c(O)c(C(C)(C)C)c1)c1ccc(N)nc1N (centres undefined) | – | – | Active | – | – | – | 11.1 | 32.3 | – | – | – | – | – | 28.1 | –
17 | COP(=O)(Cc1cc(C(C)(C)C)c(O)c(C(C)(C)C)c1)OC | 0 | – | Active | – | – | 0 | 26 | > 100 | – | – | 0 | – | – | > 100 | –
